# Values quoted from earlier work in patent US9272137B2, “Transdermal methods and systems for the delivery of anti-migraine compounds” (Teva Pharmaceuticals International GmbH, priority 2006, dated 2016).
structure (smiles),measurement,setting,value
CNS(=O)(=O)Cc1ccc2[nH]cc(CCN(C)C)c2c1 [Sumatriptan],serum elimination half-life,in vivo,2 h
same,time within which most of the active drug is eliminated,majority of patients,4 to 6 h
